# Results: US20120059162A1, “FUSED IMIDAZOLE DERIVATIVE HAVING TTK INHIBITORY ACTION” (Oncotherapy Science, Inc., priority 2009, published 2012)
# Where two headings read alike, the source gives them in different places.
# Key:
# [1] = target: T1, TTK (Homo sapiens, UniProt P33981); test: TTK assay: screening of TTK kinase activity suppressing action using p38 MAPK peptide; assay type: biochemical; conditions: read-out: TTK IC50
# T1 sequence (P33981 1-857): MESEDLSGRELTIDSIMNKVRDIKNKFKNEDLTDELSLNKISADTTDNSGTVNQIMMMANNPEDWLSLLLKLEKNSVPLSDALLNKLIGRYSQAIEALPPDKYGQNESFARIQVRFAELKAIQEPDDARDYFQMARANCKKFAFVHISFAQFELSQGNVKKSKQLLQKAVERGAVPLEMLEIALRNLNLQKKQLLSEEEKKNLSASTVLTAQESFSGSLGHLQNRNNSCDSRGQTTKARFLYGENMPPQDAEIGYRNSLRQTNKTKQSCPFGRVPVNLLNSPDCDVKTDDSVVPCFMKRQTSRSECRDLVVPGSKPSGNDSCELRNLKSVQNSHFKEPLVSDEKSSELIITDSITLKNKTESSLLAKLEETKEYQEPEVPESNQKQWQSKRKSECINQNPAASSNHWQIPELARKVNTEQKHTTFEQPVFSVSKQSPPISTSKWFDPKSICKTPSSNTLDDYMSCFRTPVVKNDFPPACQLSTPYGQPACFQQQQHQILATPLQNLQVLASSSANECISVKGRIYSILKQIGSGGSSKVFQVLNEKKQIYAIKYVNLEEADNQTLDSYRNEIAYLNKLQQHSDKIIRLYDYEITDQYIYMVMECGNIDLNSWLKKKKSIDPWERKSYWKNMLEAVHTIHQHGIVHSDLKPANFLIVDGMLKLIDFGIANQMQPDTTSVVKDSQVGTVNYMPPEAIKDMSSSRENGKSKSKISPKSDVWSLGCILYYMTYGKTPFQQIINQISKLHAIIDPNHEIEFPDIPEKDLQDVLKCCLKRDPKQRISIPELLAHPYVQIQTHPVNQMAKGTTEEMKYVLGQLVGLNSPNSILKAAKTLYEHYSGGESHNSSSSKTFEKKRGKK
# Description: Screening of a compound having a TTK kinase activity suppressing action using p38 MAPK peptide
# A test substance 1.0 μL (solvent: 10% (v/v) DMSO), TTK solution 5 μL (composition: 4 μg/ml TTK, 25 mM Tris-HCl, pH7.5, 5 mM β-glycerophosphate, 2 mM DTT, 0.1 mM Na3VO4, 5 mM MgCl2, 0.1% (w/v)BSA) and a substrate solution 5 μL (composition: 60 μM p38 MAPK peptide, 60 μM ATP, 25 mM Tris-HCl, pH7.5, 5 mM β-glycerophosphate, 2 mM DTT, 0.1 mM Na3VO4, 5 mM MgCl2, 0.1% (w/v)BSA) were mixed in the wells of a 384-well microtiter plate (manufactured by Corning Incorporated) made of polypropylene and loaded in a constant temperature and humidity room.
# From the resultant mixture, an aliquot of 1.7 μL was taken out and mixed with the reaction terminating solution (60 μl) in the wells of a 384-well microtiter plate (manufactured by Corning Incorporated) made of polypropylene. Thereafter, 40 μL of the mixture was transferred to a 384-well black NeutrAvidin plate (PIERCE), sealed and incubated under room temperature for 30 minutes. […] Similarly, the plate was washed with TTBS (100 μL) three times, 40 μl of a secondary antibody solution (Eu-N1 labeled Anti-mouse IgG (Perkin Elmer, #AD0124)) was added and incubated under room temperature for 30 minutes. After the plate was washed with TTBS (100 μL) five times, 40 μL of an enhance solution (Perkin Elmer) was added and incubated under room temperature for 5 minutes. […] Based on the fluorescence value in the absence of a test substance, the suppression activity of a test substance was measured.
# [2] = system: A549; test: A549 assay: screening of cancer cell growth inhibiting compound; assay type: cell-based; conditions: Homo sapiens, A549 cells, read-out: A549 IC50
# Description: Screening of Cancer Cell Growth Inhibiting Compound
# A cell suspension solution (RERF-LC-AI, A549: 1×10^4/ml, MRC5: 3×10^4/ml and 1×10^5/ml) adjusted to an appropriate concentration with D-MEM (hereinafter, referred to as a culture solution and manufactured by Nacalai Tesque Inc.) supplemented with 10% FBS (HyClone) was added to the wells of a 96-well plate (hereinafter, well plate) at a rate of 100 μL/well and incubated in a CO2 incubator at 37° C. for a day. […] Next, cells were added to each well of the well plate prepared and the above compound dilution solution was added at a rate of 100 μL/well to obtain 200 μL/well. Thereafter, the cells were incubated in the CO2 incubator at 37° C. for further three days. To each well of the well plate, 10 μL of a WST-8 kit (Kishida Chemical Co., Ltd.) solution for counting the number of cells was added and a color reaction was performed in the CO2 incubator for 1 to 4 hours. After the absorbance at 450 nm (reference wavelength: 620 nm) was measured by a microplate reader, suppressing action of the test substance was calculated based on the absorbance value in the absence of a test substance.
SMILES,IC50 [1] [nM],IC50 ([2]; values given as IC50 intervals) [nM],IC50 ([1]; p38 MAPK peptide substrate) [nM],"IC50 ([2]; 72 h, three days, WST-8) [nM]"
O=C(NC1CC1)c1ccc(-c2cnc3c(NCC4CCOCC4)cc(NC4C5CC6CC(C5)CC4C6)nn23)cc1 (stereo not shown) [Example 2-73],–,–,3.5,50 to 500
COCCN(c1cc(NCC2CCOCC2)c2ncc(-c3ccc(C(=O)NC4CC4)cc3)n2n1)C1CCCC1 [Example 2-29],–,–,6.2,50 to 500
O=C(NC1CC1)c1ccc(-c2cnc3c(NC[C@H]4CC[C@H](O)CC4)cc(NC4CCCCC4)nn23)cc1 [Example 2-164],–,–,3.3,50 to 500
O=C(NC1CC1)c1ccc(-c2cnc3c(NCC4CCOCC4)cc(OC4CCCCC4O)nn23)cc1 (stereo not shown) [Example 2-188],5.3,50 to 500,–,–
CC(C)(C)CNc1cc(NC2CCCCC2)nn2c(-c3ccc(C(=O)NC4CC4)cc3)cnc12 [Example 2-135],–,–,9.6,50 to 500
COc1ccc(Oc2cc(NCC3CCOCC3)c3ncc(-c4ccc(C(=O)NC5CC5)cc4)n3n2)cc1 [Example 2-179],3.7,≤ 50,–,–
N#Cc1ccc(-c2cn3c(-c4ccc(C(=O)NC5CC5)cc4)cnc3c(NCC3COCCO3)n2)cc1 (stereo not shown) [Example 1-222],–,–,16.8,50 to 500
N#Cc1ccc(-c2cn3c(-c4ccc(C(=O)NC5CC5)cc4)cnc3c(NCCCO)n2)cc1 [Example 1-218],–,–,14.4,50 to 500
O=C(NC1CC1)c1ccc(-c2cnc3c(NCC4CCOCC4)cc(Oc4ccccc4C(F)(F)F)nn23)cc1 [Example 2-96],–,–,7.5,50 to 500
"O=C(NC1CC1)c1ccc(-c2cnc3c(NCC4CCOCC4)cc(Oc4ccccc4Cl)nn23)cc1 [Example 2-90, 4-(6-(2-Chlorophenoxy)-8-((tetrahydro-2H-pyran-4-yl)methylamino)imidazo[1,2-b]pyridazin-3-yl)-N-cyclopropylbenzamide]",–,–,2.7,50 to 500
CC(C)(Nc1cc(NCC2CCOCC2)c2ncc(-c3ccc(C(=O)NC4CC4)c(F)c3)n2n1)C(F)(F)F [Example 2-219],4.3,≤ 50,–,–
O=C(NC1CC1)c1ccc(-c2cnc3c(NCC(F)F)cc(NC4CCCCC4)nn23)cc1 [Example 2-144],–,–,3.5,50 to 500
O=C(NC1CC1)c1ccc(-c2cnc3c(NCC4CCSCC4)cc(NC4CCCCC4)nn23)cc1 [Example 2-131],–,–,5.5,50 to 500
Cc1cc(C(=O)NC2CC2)ccc1-c1cnc2c(NCC3CCOCC3)cc(NC3CCCC3)nn12 [Example 2-226],6.9,50 to 500,–,–
O=C(NC1CC1)c1ccc(-c2cnc3c(NCc4ccccn4)cc(NC4CCCCC4)nn23)cc1 [Example 2-154],–,–,5,50 to 500
O=C(NC1CC1)c1ccc(-c2cnc3c(NCc4ccc(=O)[nH]c4)cc(NC4CCCCC4)nn23)cc1 [Example 2-165],–,–,5.6,1000 to 10000
"O=C(NC1CC1)c1ccc(-c2cnc3c(OCC4CCOCC4)cc(NC4CCCCC4)nn23)cc1 [Example 2-89, 4-(6-(Cyclohexylamino)-8-((tetrahydro-2H-pyran-4-yl)methoxy)imidazo[1,2-b]pyridazin-3-yl)-N-cyclopropylbenzamide]",–,–,5,50 to 500
O=C(NC1CC1)c1ccc(-c2cnc3c(NCC4CCOCC4)cc(NC45CC6CC(CC(C6)C4)C5)nn23)cc1 [Example 2-64],–,–,1.9,≤ 50
"O=C(NC1CC1)c1ccc(-c2noc3c(NCC4CCOCC4)nc(NC4CCCC4)nc23)cc1 [Example 3-4, 4-(5-(cyclopentylamino)-7-((tetrahydro-2H-pyran-4-yl)methylamino)isoxazolo[4,5-d]pyrimidin-3-yl)-N-cyclopropylbenzamide]",527,–,–,–

# More lines, now with the values ahead:
IC50 [1] [nM],IC50 ([2]; values given as IC50 intervals) [nM],IC50 ([1]; p38 MAPK peptide substrate) [nM],"IC50 ([2]; 72 h, three days, WST-8) [nM]",SMILES
20.3,1000 to 10000,–,–,O=C(NC1CC1)c1ccc(-c2cnc3c(NCC4CCOCC4)cc(CC4CCCC4)nn23)cc1 [Example 2-210]
–,–,3.7,50 to 500,O=C(NC1CC1)c1ccc(-c2cnc3c(NCC4CCOCC4)cc(Nc4ccccc4O)nn23)cc1 [Example 2-34]
–,–,4.9,50 to 500,CC(C)C(C)Nc1cc(NCC2CCOCC2)c2ncc(-c3ccc(C(=O)NC4CC4)cc3)n2n1 (stereo not shown) [Example 2-55]
–,–,7.5,50 to 500,O=C(NC1CC1)c1ccc(-c2cnc3c(NCC4CCOCC4)cc(N4CCCCS4(=O)=O)nn23)cc1 [Example 2-40]
–,–,4.4,50 to 500,Cc1ccc(Oc2cc(NCC3CCOCC3)c3ncc(-c4ccc(C(=O)NC5CC5)cc4)n3n2)cc1 [Example 2-103]
–,–,19.7,500 to 1000,Cc1nc(C)c(-c2cc(NCC3CCOCC3)c3ncc(-c4ccc(C(=O)NC5CC5)cc4)n3n2)s1 [Example 2-9]
–,–,5.2,50 to 500,O=C(NC1CC1)c1ccc(-c2cnc3c(NCC4CCOCC4)cc(NC4CCCOC4)nn23)cc1 (stereo not shown) [Example 2-83]
–,–,3.9,50 to 500,CC1(Nc2cc(NCC3CCOCC3)c3ncc(-c4ccc(C(=O)NC5CC5)cc4)n3n2)CCS(=O)(=O)C1 (stereo not shown) [Example 2-72]
5.7,50 to 500,–,–,O=C(NC1CC1)c1ccc(-c2cnc3c(NCC4CCOCC4)cc(OCC(F)(F)F)nn23)cc1 [Example 2-183]
–,–,8.9,50 to 500,COC1CCN(c2cc(NCC3CCOCC3)c3ncc(-c4ccc(C(=O)NC5CC5)cc4)n3n2)CC1 [Example 2-26]
–,–,6,50 to 500,CC1CCC(Nc2cc(NCC3CCOCC3)c3ncc(-c4ccc(C(=O)NC5CC5)cc4)n3n2)CC1 (stereo not shown) [Example 2-19]
–,–,6.2,50 to 500,"CCC(C)Nc1cc(NCC2CCOCC2)c2ncc(-c3ccc(C(=O)NC4CC4)cc3)n2n1 (stereo not shown) [Example 2-87, 4-(6-(sec-Butylamino)-8-((tetrahydro-2H-pyran-4-yl)methylamino)imidazo[1,2-b]pyridazin-3-yl)-N-cyclopropylbenzamide]"
2.1,50 to 500,–,–,CC1(Oc2cc(NCC3CCOCC3)c3ncc(-c4ccc(C(=O)NC5CC5)cc4)n3n2)CCCC1 [Example 2-192]
5.6,50 to 500,–,–,CC(Oc1cc(NCC2CCOCC2)c2ncc(-c3ccc(C(=O)NC4CC4)cc3)n2n1)C(F)(F)F (stereo not shown) [Example 2-184]
–,–,3.9,50 to 500,CC(C)CN(CC(F)(F)F)c1cc(NCC2CCOCC2)c2ncc(-c3ccc(C(=O)NC4CC4)cc3)n2n1 [Example 2-32]
–,–,18.4,50 to 500,COCCNc1cc(NCC2CCOCC2)c2ncc(-c3ccc(C(=O)NC4CC4)cc3)n2n1 [Example 2-18]
5.7,500 to 1000,–,–,O=C(NC1CC1)c1ccc(-c2cnc3c(NCC4CCOCC4)cc(C=C4CCCCC4)nn23)cc1 [Example 2-207]
–,–,7.4,50 to 500,O=C(NC1CC1)c1ccc(-c2cnc3c(NCC4CCOCC4)cc(NC4CC=CC4)nn23)cc1 [Example 2-54]
